target: T1, truncated human beta-secretase (residues 1-458, His6-tagged at the C-terminus) (Homo sapiens, UniProt P56817); assay: BACE fluorescence quench assay; format: biochemical; settings: not given
T1 construct: truncated human beta-secretase (residues 1-458, His6-tagged at the C-terminus); His6 (C); made in house; host or cells: insect cells D. melanogaster S2 (baculovirus expression system (so in the source))
T1 sequence (P56817 22-458): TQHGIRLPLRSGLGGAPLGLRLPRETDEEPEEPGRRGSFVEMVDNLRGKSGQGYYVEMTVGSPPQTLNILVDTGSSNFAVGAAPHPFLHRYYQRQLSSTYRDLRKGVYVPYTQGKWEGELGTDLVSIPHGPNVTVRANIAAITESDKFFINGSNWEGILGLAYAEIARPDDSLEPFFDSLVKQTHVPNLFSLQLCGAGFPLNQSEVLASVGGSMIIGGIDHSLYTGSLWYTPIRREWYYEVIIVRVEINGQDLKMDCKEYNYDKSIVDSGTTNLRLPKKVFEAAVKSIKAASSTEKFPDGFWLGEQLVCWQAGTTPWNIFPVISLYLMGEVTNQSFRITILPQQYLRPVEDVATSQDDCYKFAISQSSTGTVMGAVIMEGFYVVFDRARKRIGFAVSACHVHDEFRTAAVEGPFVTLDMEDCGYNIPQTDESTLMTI

CN1C(=O)C2(CC(c3ccccc3)Oc3ccc(-c4cccc(C(=O)NCCC#N)c4)cc32)N=C1N (stereo not shown) [Compound 47, 3-(2′-amino-1′-methyl-5′-oxo-2-phenyl-1′,5′-dihydrospiro[chroman-4,4′-imidazole]-6-yl)-N-(2-cyanoethyl)benzamide] and CNC(=O)c1cccc(-c2ccc3c(c2)C2(CC(c4ccccc4)O3)N=C(N)N(C)C2=O)c1 (stereo not shown) [Compound 50, 3-(2′-amino-1′-methyl-5′-oxo-2-phenyl-1′,5′-dihydrospiro[chroman-4,4′-imidazole]-6-yl)-N-methylbenzamide] fall in the same range of IC50: 5000 to 10000 nM for the first, 5000 to 10000 nM for the second.

Compared with CN1C(=O)C2(CC(c3ccccc3)Oc3ccc(-c4cccc(NS(C)(=O)=O)c4)cc32)N=C1N (stereo not shown) [Compound 52, N-(3-(2′-amino-1′-methyl-5′-oxo-2-phenyl-1′,5′-dihydrospiro[chroman-4,4′-imidazole]-6-yl)phenyl)methanesulfonamide], CN1C(=O)C2(CC(c3ccccc3)Oc3ccc(-c4ccncc4)cc32)N=C1N (stereo not shown) [Compound 58, 2′-amino-1′-methyl-2-phenyl-6-(pyridin-4-yl)spiro[chroman-4,4′-imidazol]-5′(1′H)-one] is higher in IC50: 5000 to 10000 nM for the first, 10000 to 50000 nM for the second.

First: CN(C)C(=O)c1ccccc1-c1ccc2c(c1)C1(CC(c3ccccc3)O2)N=C(N)N(C)C1=O (stereo not shown) [Compound 66, 2-(2′-amino-1′-methyl-5′-oxo-2-phenyl-1′,5′-dihydrospiro[chroman-4,4′-imidazole]-6-yl)-N,N-dimethylbenzamide]
Second: CN1C(=O)C2(CC(c3ccccc3)Oc3ccc(-c4cccs4)cc32)N=C1N (stereo not shown) [Compound 36, 2′-amino-1′-methyl-2-phenyl-6-(thiophen-2-yl)spiro[chroman-4,4′-imidazol]-5′(1′H)-one]
The IC50 of the first is higher: 10000 to 50000 nM for the first, 1000 to 5000 nM for the second.

same assay, conditions: in vitro enzyme activity, BACE fluorescence assay, pH 4.5; read-out: IC50

CN1C(=O)C2(CC(C3CCOC(C)(C)C3)Oc3ccc(-c4cc(F)ccc4F)cc32)N=C1N (stereo not shown) [Compound 300] and CN1OC2(C[C@H]([C@H]3CCOC(C)(C)C3)Oc3ccc(-c4cc(F)ccc4F)cc32)N=C1N (stereo partly shown) [Compound 341] fall in the same range of IC50: 100 to 500 nM for the first, 100 to 500 nM for the second.

Compared with CN1OC2(CC3(COC(C)(C)OC3)Oc3ccc(-c4cccc(C#N)c4)cc32)N=C1N (stereo not shown) [Compound 123, 3-(3″-imino-2″-methylspiro[spiro(chroman-2,1′-(4,4-dimethyl-3,5-dioxane))-4,5″-[1,2,4]oxadiazolidine]-6-yl)benzonitrile], CCC1CCC2(C1)CC1(N=C(N)N(C)O1)c1cc(-c3cccc(C#N)c3)ccc1O2 (stereo not shown) [Compound 120] is lower in IC50: 5000 to 10000 nM for the first, 1000 to 5000 nM for the second.

CN1C(=O)C2(CC(c3cccc(F)c3)Oc3ccc(Br)cc32)N=C1N (stereo not shown) [Compound 38, 2′-amino-6-bromo-2-(3-fluorophenyl)-1′-methylspiro[chroman-4,4′-imidazol]-5′(1′H)-one] and CN1C(=O)C2(CC(c3cccc(Cl)c3)Oc3ccc(Br)cc32)N=C1N (stereo not shown) [Compound 34, 2′-amino-6-bromo-2-(3-chlorophenyl)-1′-methylspiro[chroman-4,4′-imidazol]-5′(1′H)-one] fall in the same range of IC50: 1000 to 5000 nM for the first, 1000 to 5000 nM for the second.

CC(C)=C[C@H](CCO)[C@@H]1C[C@@]2(N=C(N)N(C)O2)c2cc(-c3cccc(C(F)(F)F)c3)ccc2O1 [Compound 423] and CC(C)=CC(CCO)[C@H]1C[C@@]2(N=C(N)N(C)O2)c2cc(-c3cc(F)cc(F)c3)ccc2O1 (stereo partly shown) [Compound 421] fall in the same range of IC50: 1000 to 5000 nM for the first, 1000 to 5000 nM for the second.

First: CN1C(=O)C2(CC(c3ccccc3F)Oc3ccc(Br)cc32)N=C1N (stereo not shown) [Compound 63, 2′-amino-6-bromo-2-(2-fluorophenyl)-1′-methylspiro-[chroman-4,4′-imidazol]-5′(1′H)-one]
Second: CN1C(=O)C2(CC(c3ccccc3F)Oc3ccc(-c4cccc(C#N)c4)cc32)N=C1N (stereo not shown) [Compound 9, 3-(2′-amino-2-(2-fluorophenyl)-1′-methyl-5′-oxo-1′,5′-dihydrospiro[chroman-4,4′-imidazole]-6-yl)benzonitrile]
The IC50 of the first is higher: 10000 to 50000 nM for the first, 100 to 500 nM for the second. The second is the more potent here.

CN1OC2(CC(C3CCCOC3)Oc3ccc(-c4ccc(F)c(C#N)c4F)cc32)N=C1N (stereo not shown) [Compound 334] and COc1ccc(F)c(-c2ccc3c(c2)C2(CC(C4CCCOC4)O3)N=C(N)N(C)O2)c1 (stereo not shown) [Compound 91] fall in the same range of IC50: 100 to 500 nM for the first, 100 to 500 nM for the second.

First: CN1C(=O)[C@@]2(C[C@]3(CCCOC3)Oc3ccc(-c4cccc(Cl)n4)cc32)N=C1N [Compound 426]
Second: CN1C(=O)[C@@]2(C[C@@]3(CCCOC3)Oc3ccc(-c4ccco4)cc32)N=C1N [Compound 448]
The IC50 of the first is lower: 1000 to 5000 nM for the first, 10000 to 50000 nM for the second.

First: CN1C(=O)[C@@]2(C[C@H](c3ccccc3)Oc3ccc(-c4cccc(C#N)c4)cc32)N=C1N (racemic) [Compound 2a, 3-(2′-amino-1′-methyl-5′-oxo-2-phenyl-1′,5′-dihydrospiro[chroman-4,4′-imidazole]-6-yl)benzonitrile]
Second: CN1C(=O)C2(CC(c3cccc(F)c3)Oc3ccc(-c4cccc(C#N)c4)cc32)N=C1N (stereo not shown) [Compound 7]
The IC50 of the first is lower: 1 to 100 nM for the first, 100 to 500 nM for the second.

First: Cc1ccc(C)c(-c2ccc3c(c2)C2(CC4(CCCOC4)O3)N=C(N)N(C)C2=O)c1 (stereo not shown) [Compound 364]
Second: Cc1ccc(F)cc1-c1ccc2c(c1)[C@]1(C[C@@]3(CCCOC3)O2)N=C(N)N(C)C1=O [Compound 385]
The IC50 of the first is lower: 500 to 1000 nM for the first, 1000 to 5000 nM for the second.

Compared with CN1OC2(CC(C3CCOCC3)Oc3ccc(-c4cccc(C#N)c4)cc32)N=C1N (stereo not shown) [Compound 88, 3-(3′-amino-2′-methyl-2-(tetrahydro-2H-pyran-4-yl)-2′H-spiro[chroman-4,5′-[1,2,4]-oxadiazole]-6-yl)benzonitrile], CN1OC2(C[C@@]3(CCCC4CCCCC43)Oc3ccc(-c4cccc(C#N)c4)cc32)N=C1N (stereo partly shown) [Compound 416] is higher in IC50: 100 to 500 nM for the first, 1000 to 5000 nM for the second.

First: CN1C(=O)[C@@]2(C[C@@]3(CCCOC3)Oc3ccc(-c4cccc(C#N)c4)cc32)N=C1N [Compound 72b]
Second: CN1C(=O)C2(CC3(CCCOC3)Oc3ccc(-c4cccc(C#N)c4)cc32)N=C1N (stereo not shown) [Compound 72]
The IC50 of the first is higher: 100 to 500 nM for the first, 1 to 100 nM for the second. The second is the more potent here.

Compared with CN1OC2(CC3(CCCOC3)Oc3ccc(-c4cccc(Cl)c4)cc32)N=C1N (stereo not shown) [Compound 110], CN1O[C@@]2(C[C@]3(CCC(C(C)(C)C)C3)Oc3ccc(-c4cccc(C#N)c4)cc32)N=C1N (stereo partly shown) [Compound 127b] is higher in IC50: 100 to 500 nM for the first, 5000 to 10000 nM for the second.

CN1C(=O)[C@@]2(C[C@@]3(CCCOC3)Oc3ccc(-c4cc(F)cc(F)c4F)cc32)N=C1N [Compound 359] and CN1C(=O)[C@@]2(C[C@@]3(CCCOC3)Oc3ccc(-c4cc(F)cc(C#N)c4)cc32)N=C1N [Compound 356] fall in the same range of IC50: 500 to 1000 nM for the first, 500 to 1000 nM for the second.

Compared with CN1OC2(CC(C3CCOC(C)(C)C3)Oc3ccc(-c4csc(-n5ccnc5)n4)cc32)N=C1N (stereo not shown) [Compound 370], CN1OC2(CC(C3CCOC(C)(C)C3)Oc3ccc(-c4cccc(-n5ccnc5)n4)cc32)N=C1N (stereo not shown) [Compound 400] is higher in IC50: 500 to 1000 nM for the first, 1000 to 5000 nM for the second. The first is the more potent here.

CN1OC2(CC3(CCCOC3)Oc3ccc(C#CC4CC4)cc32)N=C1N (stereo not shown) [Compound 407, 2″-methyl-6-(cyclopropylethynyl)-2″H-spiro[spiro[chroman-2,1′-(3-oxacyclohexane)]-4,5′-[1,2,4]oxadiazol]-3″-amine] and CN1OC2(CC3(CCCOC3)Oc3ccc(C4CCCCC4)cc32)N=C1N (stereo not shown) [Compound 122] fall in the same range of IC50: 1000 to 5000 nM for the first, 1000 to 5000 nM for the second.

Compared with CN1C(=O)C2(CC3(CCOCC3)Oc3ccc(-c4cccc(C#N)c4)cc32)N=C1N (stereo not shown) [Compound 77], CCOC(=O)c1cccc(-c2ccc3c(c2)[C@]2(C[C@@]4(CCCOC4)O3)N=C(N)N(C)C2=O)c1 [Compound 429] is higher in IC50: 100 to 500 nM for the first, 1000 to 5000 nM for the second.

First: CN1C(=O)C2(CC(C)(c3ccccc3)Oc3ccc(-c4cccc(C#N)c4)cc32)N=C1N (stereo not shown) [Compound 32, 3-(2′-amino-1′,2-dimethyl-5′-oxo-2-phenyl-1′,5′-dihydrospiro[chroman-4,4′-imidazole]-6-yl)benzonitrile]
Second: CN1C(=O)[C@@]2(C[C@@H](c3ccc(F)cc3)Oc3ccc(-c4cccc(C#N)c4)cc32)N=C1N [Compound 19a, 3-((2S,4S)-2′-amino-2-(4-fluorophenyl)-1′-methyl-5′-oxo-1′,5′-dihydrospiro[chroman-4,4′-imidazole]-6-yl)benzonitrile]
The IC50 of the first is higher: 1000 to 5000 nM for the first, 500 to 1000 nM for the second. The second is the more potent here.

COc1ccc(OC)c(-c2ccc3c(c2)[C@]2(C[C@@]4(CCCOC4)O3)N=C(N)N(C)C2=O)c1 [Compound 321] and COc1ccc(OC)c(-c2ccc3c(c2)[C@]2(C[C@]4(CCCOC4)O3)N=C(N)N(C)C2=O)c1 [Compound 307] fall in the same range of IC50: 100 to 500 nM for the first, 100 to 500 nM for the second.

First: CCCCNC(=O)c1cccc(-c2ccc3c(c2)[C@]2(C[C@@H](c4ccccc4)O3)N=C(N)N(C)C2=O)c1 [Compound 55b, 3-((2S,4S)-2′-amino-1′-methyl-5′-oxo-2-phenyl-1′,5′-dihydrospiro[chroman-4,4′-imidazole]-6-yl)-N-butylbenzamide]
Second: CN1C(=O)[C@@]2(CC(c3cccs3)Oc3ccc(-c4cccc(C#N)c4)cc32)N=C1N (stereo in doubt) [Compound 8b, 3-((2R,4S)-2′-Amino-1′-methyl-5′-oxo-2-(thiophen-2-yl)-1′,5′-dihydrospiro[chroman-4,4′-imidazole]-6-yl)-benzonitrile]
The IC50 of the first is higher: 10000 to 50000 nM for the first, 1000 to 5000 nM for the second. The second is the more potent here.

CN1OC2(CC3(CCCCC3)Oc3ccc(-c4cccc(C#N)c4)cc32)NC1=N (stereo not shown) [Compound 118, 3-(3″-Imino-2″-methylspiro[spiro(chroman-2,1″-cyclohexane)-4,5′-[1,2,4]oxadiazolidine]-6-yl)benzonitrile] and CN1C(=O)[C@@]2(C[C@]3(CCCOC3)Oc3ccc(-c4cc(C#N)ccc4C(F)(F)F)cc32)N=C1N [Compound 380] fall in the same range of IC50: 1000 to 5000 nM for the first, 1000 to 5000 nM for the second.

Compared with CN1OC2(CC(c3ccccc3)Oc3ccc(-c4ccc(F)c(C#N)c4)cc32)N=C1N (stereo not shown) [Compound 103, 5-(3′-amino-2′-methyl-2-phenyl-2′H-spiro(chroman-4,5′-(1,2,4)oxadiazole)-6-yl)-2-fluorobenzonitrile], CN1C(=O)[C@@]2(CC(c3cccs3)Oc3ccc(-c4cccc(C#N)c4)cc32)N=C1N (stereo in doubt) [Compound 8a, 3-((2S,4S)-2′-amino-1′-methyl-5′-oxo-2-(thiophen-2-yl)-1′,5′-dihydrospiro[chroman-4,4′-imidazole]-6-yl)benzonitrile] is lower in IC50: 5000 to 10000 nM for the first, 100 to 500 nM for the second. The second is the more potent here.

For CC(C)=CC(CCO)C1CC2(N=C(N)N(C)O2)c2cc(-c3cc(F)ccc3F)ccc2O1 (stereo not shown) [Compound 434], the IC50 was 5000 to 10000 nM.

— patent publication US8450308B2 (Vitae Pharmaceuticals, Inc., priority 2008, dated 2013)
